Laboratory results reported in patent US8906902B2, “Antibacterial compounds” (Biota Europe Ltd., priority 2012, dated 2014).
Converted amounts (≈) assume the structure as drawn.

Tests used:
[1] = Pharmacokinetic profile, rat assay (IV); type: in vivo; conditions: plasma
Experimental: The pharmacokinetic profiles of compounds are determined by measuring the compound concentration in plasma by LC/MS/MS following a single intravenous or peroral administration of the compounds at a dose of 1 or 3 mg/kg individually or in a cassette of up to 5 compounds. The concentrations are described as the mean plasma concentrations at each time point from three animals. Intravenous dose formulation is administered as a single bolus dose through the tail vein. Oral dose formulation is administered to animals by an oral gavage needle. In both cases the dose volume is 5.0 mL/kg. Blood is collected from rats using a jugular vein catheter and from anesthetized mice through a capillary guided into the retro-orbital plexus. The collected blood is then centrifuged to obtain plasma and the compounds extracted into methanol prior to determining the compound concentration by LC/MS/MS.
The pharmacokinetic profiles of selected compounds of the invention were compared directly with their primary alcohol analogues, Compounds A and B below, in the rat assay (IV).

[2] = test system: S. pneumoniae ATCC6301; experiment: Mouse survival model (lung infection); type: in vivo; conditions: CD-1 mice
Experimental: Anaesthetised female CD-1 mice (18-22 g) were inoculated intranasally with approximately 10^6 cfus of S. pneumoniae ATCC6301 prepared from a fresh overnight culture by placing 50 μl of inoculum on the nares and allowing the mice to inhale. Compounds are administered as indicated at 24, 48 and 72 hours post inoculation and the mice monitored for survival for seven or nine days after infection. […] Similarly, when Compound 17 was dosed IV at 30 mg/kg 90% of mice survived at day seven.

[3] = Microsomal stability; type: in vitro ADME; conditions: pH 7.4; mouse liver microsomes; major metabolite the parent alcohol
Experimental: In a 96 well polypropylene plate, 10 μM compound is prepared in 100 mM KPO4 buffer pH 7.4, 5 mM MgCl2, 25 μg/ml Alamethicin, 1 mg/ml (protein) liver microsomes (mouse) and a final DMSO concentration of 0.1% in 100 μl in duplicate. The plate is pre-incubated at 37° C. for 10 minutes after which reactions are initiated by the addition of NADPH and UDPGA to a final concentration of 1 mM and 5 mM respectively. Reactions are incubated at 37° C. and terminated by the addition of 100 μl DMSO at 0, 10, 30 and 60 minutes. Samples of 100 μl are withdrawn and added to 50 μl ice cold methanol and mixed on an orbital shaker for 10 minutes to precipitate the proteins. The samples are then centrifuged at 4000 rpm and 10° C. for 30 minutes and supernatants are analysed by LCMS. The T1/2 and clearance are determined by linear regression from the peak areas.

[4] = Thermodynamic solubility; type: physicochemical; conditions: aqueous buffer, thermodynamic from solid; pH 7.4, HEPES buffer, 24 hours shaking at room temperature
Experimental: In a 1.5 mL eppendorf tube, approximately 2 mg of compound is resuspended in a volume of HEPES buffer pH 7.4 to achieve a 5 mg/mL suspension. The tubes are placed on an orbital shaker at room temperature and following shaking for 24 hours the tubes are spun at 1400 rpm in a bench top centrifuge to pellet the undissolved compound. Duplicate 150 μL aliquots of the supernatant are then transferred into two ultracentrifuge tubes and spun at 357440 g for 4 hours at 20° C. 50 μL of the supernatant from each tube is then diluted with 100 μL of methanol and analysed by HPLC or LCMS to determine the concentration of compound in solution by comparing to a standard curve. The thermodynamic solubility of representative Compounds 19, 123, 134 and 153 were tested and determined to be highly soluble, at ≧2 mg/mL, at pH 7.4.

[5] = test system: S. pyogenes (ATCC 51339); experiment: Antibacterial activity MIC, S. pyogenes; type: cell-based; conditions: Streptococcus pyogenes, ATCC51339
[6] = test system: S. aureus (ATCC 29213); experiment: Antibacterial activity MIC, S. aureus; type: cell-based; conditions: Staphylococcus aureus, ATCC29213
[7] = test system: H. influenzae (ATCC 49247); experiment: Antibacterial activity MIC, H. influenzae; type: cell-based; conditions: Haemophilus influenzae, ATCC49247

CCNC(=O)Nc1nc2cc(-c3cnc(C(C)(C)O)nc3)cc(-c3ccccn3)c2s1 [Compound 1, 1-ethyl-3-[5-[2-(1-hydroxy-1-methyl-ethyl)pyrimidin-5-yl]-7-(2-pyridyl)-1,3-benzothiazol-2-yl]urea]
AUC ([1]; dose 1 mg/kg): 3100 ng·h/mL
clearance ([1]; dose 1 mg/kg): 4.3 mL/min/kg
half-life ([1]; dose 1 mg/kg): 3.38 h
mice surviving ([2]; dosed IV at 10 mg/kg, at seven or nine days): 80%

CCNC(=O)Nc1nc2cc(-c3cnc(C(C)O)nc3)cc(-c3ccccn3)c2s1 (stereo not shown) [Compound 17, 1-ethyl-3-[5-[2-(1-hydroxyethyl)pyrimidin-5-yl]-7-(2-pyridyl)-1,3-benzothiazol-2-yl]urea]
AUC ([1]; dose 3 mg/kg): 4000 ng·h/mL
clearance ([1]; dose 3 mg/kg): 12 mL/min/kg
half-life ([1]; dose 3 mg/kg): 1.78 h
mice survived ([2]; dosed IV at 30 mg/kg, at day seven): 90%

CCNC(=O)Nc1nc2cc(-c3cnc(C(C)OC(=O)CCC(=O)O)nc3)cc(-c3ccccn3)c2s1 (stereo not shown) [Compound 19, 4-[1-[5-[2-(ethylcarbamoylamino)-7-(2-pyridyl)-1,3-benzothiazol-5-yl]pyrimidin-2-yl]ethoxy]-4-oxo-butanoic acid]
half-life at 10 μM [3]: < 0.333 h
solubility thermodynamic at 24 h [4]: ≥ 2000 µg/mL

CCNC(=O)Nc1nc2cc(-c3ccc(C(C)(C)O)nc3)cc(-c3ccccn3)c2s1 [Compound 27, 1-ethyl-3-[5-[6-(1-hydroxy-1-methyl-ethyl)-3-pyridyl]-7-(2-pyridyl)-1,3-benzothiazol-2-yl]urea]
AUC ([1]; dose 1 mg/kg): 1130 ng·h/mL
clearance ([1]; dose 1 mg/kg): 13 mL/min/kg
half-life ([1]; dose 1 mg/kg): 2.63 h

CCNC(=O)Nc1nc2cc(-c3cnc(C(C)(C)O)nc3)cc(-c3nccc(N4CCN(CC)CC4)n3)c2s1 [Compound 79, 1-ethyl-3-[7-[4-(4-ethylpiperazin-1-yl)pyrimidin-2-yl]-5-[2-(1-hydroxy-1-methyl-ethyl)pyrimidin-5-yl]-1,3-benzothiazol-2-yl]urea]
MIC [5]: 2 µg/mL (≈ 3.65 µM)
MIC [6]: 2 µg/mL (≈ 3.65 µM)

CCNC(=O)Nc1nc2cc(-c3cnc(N4CCC(C)(C(=O)O)CC4)nc3)cc(-c3ccc(C(C)(C)O)cn3)c2s1 [Compound 99, 1-[5-[2-(ethylcarbamoylamino)-7-[5-(1-hydroxy-1-methyl-ethyl)-2-pyridyl]-1,3-benzothiazol-5-yl]pyrimidin-2-yl]-4-methyl-piperidine-4-carboxylic acid]
MIC [5]: ≤ 1 µg/mL
MIC [6]: 2 µg/mL (≈ 3.47 µM)
MIC [7]: ≤ 2 µg/mL

CCNC(=O)Nc1nc2cc(-c3cnc(C4(OC(=O)CCC(=O)O)COC4)nc3)cc(-c3ccccn3)c2s1 [Compound 123, 4-[3-[5-[2-(ethylcarbamoylamino)-7-(2-pyridyl)-1,3-benzothiazol-5-yl]pyrimidin-2-yl]oxetan-3-yl]oxy-4-oxo-butanoic acid]
half-life at 10 μM [3]: < 0.333 h
solubility thermodynamic at 24 h [4]: ≥ 2000 µg/mL

CCNC(=O)Nc1nc2cc(-c3cnc([C@H](C)OC(=O)CCC(=O)O)nc3)cc(-c3ccccn3)c2s1 [Compound 133, 4-[(1S)-1-[5-[2-(ethylcarbamoylamino)-7-(2-pyridyl)-1,3-benzothiazol-5-yl]pyrimidin-2-yl]ethoxy]-4-oxo-butanoic acid]
half-life at 10 μM [3]: < 0.333 h

CCNC(=O)Nc1nc2cc(-c3cnc([C@@H](C)OC(=O)CCC(=O)O)nc3)cc(-c3ccccn3)c2s1 [Compound 134, 4-[(1R)-1-[5-[2-(ethylcarbamoylamino)-7-(2-pyridyl)-1,3-benzothiazol-5-yl]pyrimidin-2-yl]ethoxy]-4-oxo-butanoic acid]
half-life at 10 μM [3]: < 0.333 h
solubility thermodynamic at 24 h [4]: ≥ 2000 µg/mL

CCNC(=O)Nc1nc2cc(-c3cnc([C@H](C)OP(=O)(O)O)nc3)cc(-c3ccccn3)c2s1 [Compound 153, [(1S)-1-[5-[2-(ethylcarbamoylamino)-7-(2-pyridyl)-1,3-benzothiazol-5-yl]pyrimidin-2-yl]ethyl]dihydrogen phosphate]
solubility thermodynamic at 24 h [4]: ≥ 2000 µg/mL

CCNC(=O)Nc1nc2cc(-c3cnc(CO)nc3)cc(-c3ccccn3)c2s1 [Compound A, 1-Ethyl-3-[5-[2-(hydroxymethyl)pyrimidin-5-yl]-7-(2-pyridyl)-1,3-benzothiazol-2-yl]urea, reference compound]
AUC ([1]; dose 3 mg/kg): 2000 ng·h/mL
clearance ([1]; dose 3 mg/kg): 25 mL/min/kg
half-life ([1]; dose 3 mg/kg): 1.35 h

CCNC(=O)Nc1nc2cc(-c3ccc(CO)nc3)cc(-c3ccccn3)c2s1 [Compound B, 1-Ethyl-3-[5-[6-(hydroxymethyl)-3-pyridyl]-7-(2-pyridyl)-1,3-benzothiazol-2-yl]urea, reference compound]
AUC ([1]; dose 3 mg/kg): 1800 ng·h/mL
clearance ([1]; dose 3 mg/kg): 28 mL/min/kg
half-life ([1]; dose 3 mg/kg): 1 h

CC(=O)NC[C@H]1CN(c2ccc(N3CCOCC3)c(F)c2)C(=O)O1 [Linezolid, reference compound]
survival of mice (in words) ([2]; dosed with 10 mg/kg): dead by day six
